Assay results: patent US10167259B2, “Allosteric inhibitors of proteasome and methods of use thereof” (THE BOARD OF REGENTS OF THE UNIVERSITY OF TEXAS SYSTEM, priority 2013, dated 2019)

Columns and labels:
MCF-7 cells = type: cell-based
[1] = tested on: post-glutamyl peptidase of the core particle; assay: Inhibition of post-glutamyl peptidase of the core particle; conditions: allosteric, noncompetitive
[2] = target: core proteasome activated by Rpt2 and Rpt5 tail peptides; assay: Blocking activation of core proteasome chymotrypsin-like activity by Rpt2 and Rpt5 tail peptides; type: biochemical
Excerpt: (§1) The grooves are utilized by Rpt2, Rpt3 and Rpt5 subunits that anchor the regulatory particle to the core particle (Lander, et al., 2009). The anchoring C-terminal tails of Rpt2 and Rpt5 subunits are responsible for core particle gate opening and activation (Lander, et al., 2009). Activation of the core by both Rpt2 and Rpt5 tails is affected by B1 (FIG. 2C). The groove accommodating the C-terminal tail of Rpt2 subunit may be a primary docking place for B1, or B1 may allosterically affect binding of Rpt2 C-terminal tail with an exceptionally high efficiency (FIG. 2D). In vitro reconstruction of the 26S proteasome assembly from the core particle (20S) and regulatory particle (19S) components is attenuated by the treatment with B1 (FIG. 2E).

[3] = tested on: multiple myeloma RPMI8226 cells; assay: Growth and viability of multiple myeloma RPMI8226 cells; type: cell-based; conditions: B1 alone
MDA-MB-231 cells = type: cell-based
MCF-10A cells = type: cell-based; conditions: 160 nM; FIG. 3D
26S proteasome assembly = assay: Inhibition of proteinase activity of the 26S proteasome (casein-BODIPY degradation); conditions: read-out: IC50, inhibition of proteinase activity of the 26S proteasome assembly; model substrate casein-BODIPY; FIG. 1C
mTOR = mTOR (Homo sapiens, UniProt P42345); assay: mTOR activity in HeLa cells (Western blot with anti-phosphoS6 antibodies); type: cell-based; conditions: up to 100 nM, FIG. 3B
[4] = tested on: proteasome (20S and 26S) in multiple myeloma cells; assay: Proteasome activity in lysates of treated cultured multiple myeloma cells; type: cell-based
[5] = tested on: polyubiquitinated proteins in MDA-MB-231 cells; assay: Accumulation of polyubiquitinated proteins in treated MDA-MB-231 cells (Western blot, FK-1); type: cell-based; conditions: MDA-MB-231, 24 hrs, 160 nM; FIG. 3E
[6] = target: core particle (20S) activated by regulatory particle 19S; assay: In vitro activation of the core by purified regulatory particle 19S (26S reconstruction); type: biochemical; conditions: FIG. 2E; read-out: IC50, interference with in vitro activation of the core by purified regulatory particle 19S
Excerpt: as §1

[7] = tested on: proteasome chymotrypsin-like activity in Mcf7 lysate; assay: Total chymotrypsin-like activity of the proteasome in cell lysates; type: biochemical
Procedure: (§2) The in vitro effects of the compound B1 are also detectable in cell lysates (FIGS. 3A-E). The total chymotrypsin-like activity of the proteasome in the Mcf7 and Mcf10A lysates was measured. […] Also, B1 appears to be stable in the presence of the whole cell lysate or the purified core particle (FIG. 3C).

[8] = tested on: core proteasome α face (gate conformers); assay: Atomic force microscopy (AFM) imaging of core proteasome gate conformers; conditions: FIG. 1E
[9] = Stability in the presence of cell lysate or purified CP (RP-HPLC); type: in vitro ADME; conditions: cell lysate 0.5 mg/ml or purified CP, up to 1 h at 37° C., FIG. 3C
Procedure: as §2

[10] = tested on: chymotrypsin-like activity of the core particle (CP; 20S); assay: Inhibition of chymotrypsin-like peptidase activity of the proteasome core particle
Solubility in solvents = type: physicochemical
[11] = Chou-Talalay, fraction affected >0.3, mostly 1:1 conc. ratio

Q: Which “Cytotoxicity to MCF-7 cells” value (MCF-7 cells; B1 alone, 40 nM, 24 hrs, trypan blue exclusion, FIG. 3D) does the source give for `COc1cc(CCCOC(=O)C2CCCCN2C(=O)C(=O)C2CCCCC2)cc(OC)c1OC` (stereo not drawn) [B1] here?
A: Its value is “cytotoxic”.

Q: And the “Combination Index (CI) with bortezomib, MCF-7” value (MCF-7 cells; [11])?
A: The value was “below 1”.

Q: What about the “Effect on post-glutamyl peptidase of the core particle” value [1] of the same molecule?
A: The value was “inhibits”.

Q: And the IC50 ([2]; FIG. 2C)?
A: The IC50 was about 2 nM.

Q: And the “Blocking activation of the core by the Rpt2 tail” value ([2]; tail present at high, micromolar-range concentrations, FIG. 2D)?
A: The value was “exceptionally effective”.

Q: What about the “Effect on growth of multiple myeloma RPMI8226 cells” value ([3]; FIG. 3D right) of the same molecule?
A: The value was “efficiently prevented growth”.

Q: What about the IC50 ([3]; Homo sapiens, RPMI-8226, FIG. 3D, read-out: IC50, multiple myeloma cultured cells) of the same molecule?
A: Its IC50 is 59 nM.

Q: And the “Cytotoxicity to MDA-MB-231 cells” value (MDA-MB-231 cells; B1 alone, 160 nM, 24 hrs, trypan blue exclusion, FIG. 3D)?
A: Its value is “cytotoxic”.

Q: What about the “Combination Index (CI) with bortezomib, MDA-MB-231” value (MDA-MB-231 cells; [11]) of the same molecule?
A: The value was “below 1”.

Q: And the “Cytotoxicity to non-cancerous Mcf10A cells” value (MCF-10A cells)?
A: The value was “refractory to the treatment”.

Q: What about the IC50 (26S proteasome assembly) of the same molecule?
A: The IC50 was 41 nM.

Q: And the “Effect on mTOR activity” value (mTOR)?
A: Its value is “does not inhibit mTOR activity”.

Q: What about the “Total proteasome activity in lysates of treated cells versus DMSO control” value ([4]; 50 nM B1, model peptide substrate, FIG. 3F left) of the same molecule?
A: Its value is “lower than in control cells”.

Q: And the “Partition of activities between core particle (20S) and 26S assembly” value ([4]; 50 nM B1, non-denaturing gels, FIG. 3F right)?
A: The value was “shifted in the B1-treated cells toward more of the 20S and less of the 26S proteasomes”.

Q: And the “Polyubiquitinated proteins in lysates of treated cells” value [5]?
A: The value was “accumulation of polyubiquitinated proteins”.

Q: What about the IC50 [6] of the same molecule?
A: Its IC50 is 7.8 nM.

Q: And the “Inhibition of total chymotrypsin-like activity of the proteasome in Mcf7 lysate” value [7]?
A: The value was “well pronounced”.

Q: What about the “Effect on open-gate/closed-gate conformers of the core proteasome (AFM)” value ([8]; B1 treatment (100 nM)) of the same molecule?
A: Its value is “shift toward higher abundance of the open gate conformers”.

Q: What about the “Content of open-gate conformers in the treated core particle (AFM)” value [8] of the same molecule?
A: The value was “unusually high content of open-gate conformers”.

Q: And the “Stability in the presence of cell lysate or purified CP” value [9]?
A: The value was “remains intact”.

Q: What about the “Combined effect with bortezomib on chymotrypsin-like activity of the core particle” value ([10]; in vitro, FIG. 1D) of the same molecule?
A: The value was “synergizes with bortezomib”.

Q: What about the IC50 ([10]; read-out: IC50, inhibition of chymotrypsin-like activity of the core particle, FIG. 1B) of the same molecule?
A: Its IC50 is 19 nM.

Q: For `COc1cc(/C=C/CCCOC(=O)C2CCCCN2C(=O)C(=O)C2CCCCC2)cc(OC)c1OC` (stereo not drawn) [B4], which “Inhibitory properties toward the core proteasome after modification of B1” value [10] is on record?
A: Its value is “does not erase the inhibitory properties”.

Q: With `COc1cc(CCCCCOC(=O)C2CCCCN2C(=O)C(=O)C2CCCCC2)cc(OC)c1OC` (stereo not drawn) [B5] as the molecule, how does the “Inhibitory properties toward the core proteasome after modification of B1” value [10] read?
A: Its value is “does not erase the inhibitory properties”.

Q: With `CO[C@@H](C[C@@H]1CC[C@@H](C)[C@](O)(C(=O)C(=O)N2CCCC[C@H]2C(=O)[O-])O1)/C(C)=C/C=C/C=C/[C@@H](C)C[C@@H](C)C(=O)[C@H](OC)[C@H](O)/C(C)=C/[C@@H](C)C(=O)/C=C/[C@H](C)C[C@@H]1CC[C@@H](O)[C@H](OC)C1.[Na+]` [seco-rapamycin, reference compound] as the molecule, how does the “Content of open-gate conformers in the treated core particle (AFM)” value [8] read?
A: The value was “unusually high content of open-gate conformers”.

Q: Which “Soluble in” value (Solubility in solvents) does the source give for `COc1cc(CCCNC(=O)C2CCCCN2C(=O)C(=O)C2CCCCC2)cc(OC)c1OC` (stereo not drawn) [B2] here?
A: The value was “DMSO, CDCl3”.

Q: And the “Inhibitory properties toward the core proteasome after modification of B1” value [10]?
A: The value was “does not erase the inhibitory properties”.
